A short description of one series: Surgical. The class given is in vivo. Particulars: human, oral, 60 mg.
Another series deals with PARP1/2. Particulars: read-out: in vitro IC50 for PARP1/2 inhibition; cited from earlier work.
In the next series the test system is recurrent IDHmt gliomas. The note with it: second study in this population; cited from earlier work.

As usually defined, the fraction unbound is the share of the substance not bound to proteins or other matrix. As a reminder, the Kp is the ratio of the level in a tissue or fluid to that in plasma or blood. As for `C[C@]12CCCN1CC1=NNC(=O)c3cc(F)cc4[nH]c2c1c34` [pamiparib], the fraction unbound in “Surgical” (enhancing tumor) is 0.076; in “Surgical” (non-enhancing tumor) it was 0.083; in the series “Surgical” (plasma) it was 0.031. The Kp in the series “Surgical” (non-enhancing tumor / plasma) was found to be 0.23. For the same compound, the Kp uu in “Surgical” (non-enhancing tumor / plasma) came out at 0.92. Further, the IC50 in the series on PARP1/2 is around 1 nM.
`O=C(c1cc(Cc2n[nH]c(=O)c3ccccc23)ccc1F)N1CCN(C(=O)C2CC2)CC1` [olaparib]: the responses entry in the series on recurrent IDHmt gliomas is listed as “no responses”.

(Values after PMC12979031 (Neuro-oncology, 2026).)
